From the METLIN SMRT retention time set (Domingo-Almenara et al. 2019)

Assay: gradient 5% acetonitrile 3 min, to 50% in 2 min, to 85% in 15 min, held 3 min, 100 µL/min
Settings: column: Zorbax Extend-C18 2.1 x 50 mm; eluents: water / acetonitrile, 0.1% formic acid
How it was run: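 Retention times of pure standards were taken from adduct peaks that were selected by computer and manually inspected. Over 3 months, mixtures of ~100 molecules were run by HPLC–quadrupole time-of-flight mass spectrometry in positive and negative ionization mode. The Zorbax Extend-C18 column (2.1 × 50 mm, 1.8 μm) ran at 100 μL/min in water and acetonitrile, each containing 0.1% formic acid, with 40 μL dead volume and 900 μL dwell volume.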

RP-LC retention time	SMILES
675 s	CC(C)c1nnc(-c2ccc(S(=O)(=O)N3CCN(c4ccccn4)CC3)o2)o1
614 s	O=C(NCc1ccccn1)C(=O)c1cn(CC(=O)N2CCOCC2)c2ccccc12
953 s	Cc1ccc(-c2nc(C)cc3nn(CC(=O)Nc4cccc(Br)c4)c(=O)n23)cc1
1050 s	Cc1nc(C(=O)N2CCC[C@H]2Cc2nnc(-c3ccccc3)o2)c(-c2ccccc2F)s1
696 s	COc1ccc(CNC(=O)Cc2nnc(-c3ccccn3)o2)c(OC)c1
689 s	COc1ccccc1CNC(=O)C1CCCN(c2cnc3nccnc3c2)C1 (stereo not drawn)
682 s	O=C(CCc1c[nH]c2ccccc12)Nc1cccc(-c2nnc3n2CCCC3)c1
858 s	COc1ccccc1CNC(=O)c1nnc(-c2ccc(S(=O)(=O)N3CCOCC3)cc2)o1
617 s	CCN1CCN(C(=O)c2ccc(S(=O)(=O)c3ccccc3)s2)CC1
672 s	CCCNC(=O)C1CCCN(c2ccc(SCC(=O)Nc3ccc(C(=O)OC)cc3)nn2)C1 (stereo not drawn)
1210 s	Cc1ccc(NS(=O)(=O)c2cc(-c3nc(C(C)C)cs3)cs2)c(C)c1
607 s	CC(C)(C)C(=O)N1CCC2(CC1)CN(Cc1ccccc1)CC2CO (stereo not drawn)
516 s	NC(=O)CSc1nccn1Cc1cccs1
889 s	COc1ccc(-c2nnc(N3CCC(C(=O)NCCN4CCOCC4)CC3)o2)cc1
1110 s	CC(C)(C)c1cc(C(=O)NCc2cccs2)nc2ccnn12
1050 s	CCn1ncc(NC(=O)COc2ccc(C(C)C)cc2)c(N2CCOCC2)c1=O
664 s	COc1cccc(S(=O)(=O)N2CCC(Cc3nncn3C(C)C)C2)c1 (stereo not drawn)
1330 s	c1ccc(OCc2nc(-c3cccc(-c4csc(C5CC5)n4)c3)no2)cc1
715 s	COCCN1C(=O)Cc2ccccc2C1C(=O)NCc1cccs1 (stereo not drawn)
879 s	CCOC(=O)c1cnc2c(-c3ccccc3OC)c(C)nn2c1N
703 s	O=C(NCC1CCCO1)c1csc(N2CCN(c3cccc(Cl)c3)CC2)n1 (stereo not drawn)
762 s	O=C(Nc1nc2c(s1)CN(C(=O)c1cnn(-c3ccccc3)n1)CC2)C1CCCO1 (stereo not drawn)

RP-LC retention time	SMILES
1260 s	CCCOc1nc2ccccc2nc1N1CCCC(C(=O)Nc2cccc(CC)c2)C1 (stereo not drawn)
799 s	O=C(Nc1ccc(S(=O)(=O)Nc2nccs2)cc1)c1sc2ccccc2c1Cl
746 s	CCc1ccc(CNC(=O)c2cc3c(=O)n(C)ccc3n2C)cc1
649 s	COc1ccccc1CNC(=O)CN1CCc2[nH]c3c(C)c(Cl)ccc3c(=O)c2C1
613 s	CCc1nccn1Cc1noc(-c2ccccc2F)n1
828 s	COc1ccc(-c2nc3cc(C)ccn3c2NC(=O)C(C)(C)Oc2ccc(Cl)cc2)cc1
1030 s	O=C(NCc1nc(-c2ccc(-c3csc(C4CC4)n3)cc2)no1)c1ccccc1
776 s	O=C(c1[nH]nc2c1CCc1ccccc1-2)N1CCC(c2noc(-c3cccnc3)n2)C1 (stereo not drawn)
605 s	c1ccc(COCCc2noc(C3CN(Cc4ccncc4)C3)n2)cc1
784 s	COc1ccc(Cl)cc1C(=O)NC1CCN(c2cc(-c3ccccc3)[nH]n2)C1 (stereo not drawn)
887 s	COC(=O)c1cccc(Nc2c(-c3ccc(SC)cc3)nc3cnccn23)c1
696 s	CCN(CC)CCCNC(=O)c1nnc(-c2ccc(S(=O)(=O)N3CCC(C)CC3)cc2)o1
1080 s	CC(CCc1ccccc1)NC(=O)c1ccccc1NC(=O)C1=CSCCO1 (stereo not drawn)
902 s	COc1cc(-c2noc(C3CC(=O)N(c4ccc(C)cc4)C3)n2)cc(OC)c1OC (stereo not drawn)
671 s	Cc1cc(C)c2c(N3CCCC3)nc(C(=O)Nc3ccccc3C)nc2n1
708 s	COc1cccc(CNC(=O)Cn2cnc3onc(C)c3c2=O)c1
951 s	COc1cc(F)ccc1-c1ccnc2nc(CCc3ccccc3)nn12
1120 s	O=C(Cn1cccc1-c1nc(-c2ccc3c(c2)OCO3)no1)N1CCCc2ccccc21
566 s	CN1C(=O)c2cccn2CC1C(=O)NCc1nc2ccccc2n1C (stereo not drawn)
735 s	CCCn1c(C2CCN(C(=O)c3ccc(Br)o3)C2)nc2cccnc21 (stereo not drawn)
1140 s	CCn1c(C(=O)NCc2ccc(F)cc2)cc2sc(Cl)cc21

Second part, the molecule before the results:

SMILES	RP-LC retention time
Cc1cc(NC(=O)C2CCN(C(=O)C3Sc4ccccc4NC3=O)CC2)ccc1Br (stereo not drawn)	901 s
COc1ccc(C(C)NC(=O)C2c3ccccc3CCN2C(=O)C2CC2)cc1OC (stereo not drawn)	802 s
CC(=O)Nc1cccc(N2CC(C(=O)Nc3ccc(Cl)c(C(F)(F)F)c3)CC2=O)c1 (stereo not drawn)	807 s
Cc1ccc(C)c(-n2c(-c3ccc(Cl)cc3)cn3c4c(=O)n(C)c(=O)n(C)c4nc23)c1	1110 s
CCC1CCCCN1CCCNC(=O)C1CCCN(c2ncnc3c2nc2n3CCCCC2)C1 (stereo not drawn)	604 s
O=S(=O)(c1ccc(Cl)cc1)N1CCc2nc(-c3ccc(F)cc3)ncc2C1	1150 s
COc1cccc(/C=C/C(=O)N2CCC(c3cc(N)on3)CC2)c1	716 s
COc1ccc(N2CCN(C(=O)c3cc(NC(=O)C(C)C)cc4nc(C)ccc34)CC2)cc1	636 s
Cc1ccc(N2CCN(Cc3nc(-c4ccc(N5CCCC(C)C5)nc4)no3)CC2)cc1 (stereo not drawn)	1060 s
CCOc1ccc(Nc2c3ccccc3nc3ccccc23)cc1	795 s
COc1ccc(C(O)CN2CCN(C3CCCCC3)CC2)cc1OC (stereo not drawn)	541 s
CCOc1ccc(C2=NC3(CCN(C)CC3)NC(c3ccccc3O)C2)cc1 (stereo not drawn)	604 s
c1ccc(C2CNCc3ccccc32)cc1 (stereo not drawn)	698 s
Cc1nnc(-c2ccc3ccn(CC(=O)N4CCN(c5ccc(F)cc5)CC4)c3c2)o1	827 s
Cc1ncc2c(n1)C[C@@H]1CC[C@H]2N1S(=O)(=O)c1ccccc1	695 s
O=C1CCSc2c1cccc2C(=O)N1CCN(c2ccc(F)cc2)CC1	882 s
CC1(C(=O)NCCCN2CCc3ccccc3C2)CCCCC(=O)N1 (stereo not drawn)	578 s
O=C(/C=C/c1ccccc1)NC(Cc1ccccc1)C(=O)N1CCN(c2ccccn2)CC1 (stereo not drawn)	692 s
Cc1cc(C)cc(N2C(=O)CC(N3CCC(C(N)=O)CC3)C2=O)c1 (stereo not drawn)	562 s
Cc1ccc(-c2c(N3CCN(c4ccccn4)CC3)c(=O)c2=O)cc1C	708 s
CCC(C)n1ncn(-c2ccc(N3CCN(c4ccc(OC[C@@H]5CO[C@@](Cn6cncn6)(c6ccc(Cl)cc6Cl)O5)cc4)CC3)cc2)c1=O (stereo partly drawn)	1060 s
COc1ccc(-n2ccc(=O)c(-c3nc(-c4ccc(F)cc4)no3)n2)cc1	851 s
CCOCCOC1CCN(C(=O)Nc2ccc3c(c2)OCCO3)CC1	708 s

SMILES	RP-LC retention time
O=C(NC1CCCCCC1)c1ccc2ccnc(N3CCN(c4ccc(F)cc4)CC3)c2c1	973 s
CCC(=O)N1CCc2sc(C(=O)N3CCN(c4ccccc4F)CC3)cc2C1	827 s
COc1cc(OC)cc(-c2nnc(-c3ccccc3Cl)o2)c1	1070 s
O=C(Nc1ccc(S(=O)(=O)N2CC3CC(C2)c2cccc(=O)n2C3)cc1)C1CC1 (stereo not drawn)	631 s
CCN1c2ccc(F)cc2C(=O)NC12CCN(C(=O)Cc1ccccc1Cl)CC2	863 s
Cn1c(=O)c2c(nc3n2CC(=O)N(CCc2ccccc2)C3)n(C)c1=O	657 s
O=C(CN1C(=O)CCCc2cc(S(=O)(=O)N3CCCCC3)ccc21)NCc1ccc(Cl)cc1	926 s
Cc1[nH]c(C(=O)N2CCCC(C(=O)N3CCN(c4ccccc4)CC3)C2)c(C)c1C(=O)OC(C)C (stereo not drawn)	892 s
Nc1cc(C2CCN(S(=O)(=O)c3ccc(F)cc3F)CC2)no1	780 s
COc1ccc(C(=O)N2CCn3c(nnc3C(C)C)C2)c(OC)n1	588 s
CCC1Oc2ccc(Cl)cc2N(CC(=O)N2CCN(Cc3noc4ccccc34)CC2)C1=O (stereo not drawn)	865 s
Cc1c(C2CCN(C(=O)Cc3ccc(F)cc3)CC2)noc1N	698 s
O=C(Cn1c(-c2cnccn2)nc2ccccc21)N1CCN(c2ccccc2F)CC1	750 s
CCN1CCN(c2cc(C(=O)O)c3cc(NC(=O)C4CCC4)ccc3n2)CC1	565 s
Cc1cccc(Cn2nc3n(c2=O)CCCCC3)c1	763 s
O=C(c1c(F)cccc1F)N1CCN=C1N1CCN(c2ccccc2F)CC1	720 s
Cc1ccc2c(=O)c3c([nH]c2c1C)CCN(CC(=O)Nc1ccc(F)c(Cl)c1)C3	665 s
CN(CC1CCOCC1)C(=O)c1ccsc1	643 s
O=C(NCCC1=CCCCC1)C(=O)NCC1CCN(S(=O)(=O)C2CC2)CC1	826 s
O=C(CCc1c(-c2cccc(Cl)c2)nc2ccccn12)N1CCN(c2ccc(F)cc2)CC1	724 s
CN1C(=O)c2cc(C(=O)N3CCC(C(N)=O)CC3)nn2CC1(C)C(=O)NC1CCCC1 (stereo not drawn)	888 s
COc1ccccc1-c1nnc(-c2ccc(C)c(S(=O)(=O)N3CCCCCC3)c2)o1	1100 s
